Assay results reported in EP0973746B1, “SUBSTITUTED 3-CYANO QUINOLINES” (Wyeth Holdings Corporation, priority 1997, dated 1998).
Converted amounts (≈) assume the structure as drawn. “And” between values parts separate entries of the source, which are not always exact repeats. Equal values may be shown once. One block for each compound: values may come before it.

Assays:
[1] = molecular target: T1, Kinase insert Domain containing Receptor (KDR: the catalytic domain of the VEGF receptor) (Homo sapiens, UniProt P35968); assay: Inhibition of Kinase insert Domain containing Receptor (KDR); assay type: biochemical; settings: pH 7.2; radioactive format; read-out: KDR IC50 (converted);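 also: KDR phosphorylating a Glu:Tyr 4:1 copolymer with P32- or P33-labelled ATP, Mg++ and vanadate, read as acid-insoluble radiolabel, compared with compound-free reaction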
T1 construct: KDR: the catalytic domain of the VEGF receptor
Procedure: In this standard pharmacological test procedure, KDR protein is mixed, in the presence or absence of a inhibitor compound, with a substrate peptide to be phosphorylated (a copolymer of glutamic acid and tyrosine, E:Y :: 4:1) and other cofactors such as Mg^++ and sodium vanadate (a protein tyrosine phosphatase inhibitor) in an appropriate buffer to maintain pH (7.2). ATP and a radioactive tracer (either P^32-or P^33- labeled ATP) is then add to initiate phosphorylation. After incubation, the radioactive phosphate associated with the acid-insoluble fraction of the assay mixture is then quantified as reflection of substrate phosphorylation.

[2] = molecular target: recombinant human MEK 1 (MAPKK) and recombinant human ERK2 (MAPK); assay: Mitogen Activated Protein Kinase (MAPK) assay, two component coupled MEK 1 / ERK2; assay type: biochemical; settings: separate entries for the same compound = evaluated more than one time;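 also: MEK 1-activated ERK2 phosphorylates MBP or Myc peptide with 33P-ATP, filter capture and scintillation counting, inhibitor preincubated with ERK2 30 min at 0 °C, inhibition relative to uninhibited control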
[3] = molecular target: Epithelial Cell Kinase (ECK) (Homo sapiens, UniProt P29317); assay: biochemical
Procedure: In this standard pharmacological test procedure, a biotinylated peptide substrate is first immobilized on neutravidin-coated microtiter plates. The test drug, the Epithelial Cell Kinase (ECK), Mg^++, sodium vanadate (a protein tyrosine phosphatase inhibitor), and an appropriate buffer to maintain pH (7.2) are then added to the immobilized substrate-containing microtiter wells. ATP is then added to initiate phosphorylation. After incubation, the assay plates are washed with a suitable buffer leaving behind phosphorylated peptide which is exposed to horse radish peroxidase (HRP)-conjugated anti-phosphotyrosine monoclonal antibody. The antibody-treated plates are washed again and the HRP activity in individual wells is quantified as a reflection of degree of substrate phosphorylation.

SKBR3 = assay: Inhibition of cancer cell growth as measured by cell number, SKBR3; assay type: cell-based, human; settings: Homo sapiens, SK-BR-3, 48 h, read-out: IC50 SKBR3;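 also: SK-BR-3 cells were selected as a line overexpressing HER2/neu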
Excerpt: (§1) The cell lines were chosen since they overexpressed epidermal growth factor receptor (EGFR) (i.e. A431) or HER2/neu (SKBR3), or had little to no expression of the these receptors (SW620, LOX, MCF7).

A431 = assay: Inhibition of cancer cell growth as measured by cell number, A431; assay type: cell-based, human; settings: Homo sapiens, A-431, 48 h, read-out: IC50 A431;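 also: human A431 line, picked because it overexpresses epidermal growth factor receptor (EGFR)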
Excerpt: as §1

SW620 = assay: Inhibition of cancer cell growth as measured by cell number, SW620; assay type: cell-based, human; settings: Homo sapiens, SW-620, 48 h, read-out: IC50 SW620;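 also: SW620 was included as a cell line with little or no EGFR or HER2/neu expression, in contrast to receptor-overexpressing lines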
Excerpt: as §1

[4] = molecular target: T2, His-tagged cytoplasmic domain of EGFR (Homo sapiens, UniProt P00533); assay: Inhibition of Epidermal Growth Factor Receptor Kinase (EGF-R) using recombinant enzyme; assay type: biochemical; settings: recombinant enzyme; RR-SRC peptide; average of the number of tests; read-out: IC50;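 also: radiometric kinase assay measuring radiolabeled phosphate transfer from ATP onto the peptide tyrosine by scintillation counting, control is reaction without compound, background subtracted, IC50 from dose-response curve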
T2 construct: containing the EGFR cDNA encoding amino acids 645 - 1186 preceded by Met-Ala-(His)6; made in house; host or cells: Sf9 cells, recombinant baculovirus vHcEGFR52
Procedure: The enzyme used in this assay is the His-tagged cytoplasmic domain of EGFR.
Compounds to be evaluated were made into 10 mg/mL stock solutions in 100% dimethylsulfoxide (DMSO). Prior to experiment, stock solutions were diluted to 500 µM with 100% DMSO and then serially diluted to the desired concentration with HEPES buffer (30 mM HEPES pH 7.4).
For the enzyme reaction, 10 µL of each inhibitor (at various concentrations) were added to each well of a 96-well plate. […] This was allowed to sit for 10 min on ice and was followed by the addition of 5 µl peptide (80 µM final conc.), 10µl of 4X Buffer (Table A), 0.25 µL ^33P-ATP and 12 µL H2O. The reaction was allowed to run for 90 min at room temperature and was followed by spotting the entire volume on to precut P81 filter papers. The filter discs were washed 2X with 0.5% phosphoric acid and radioactivity was measured using a liquid scintillation counter.
The % inhibition of the test compound was determined for at least three different concentrations and the IC50 value was evaluated from the dose response curve. […] CPM(control) is in units of counts per minute and was a number expressing the amount of radiolabeled ATP (g-33P) incorporated into the RR-SRC peptide substrate by the enzyme after 90 minutes at room temperature in the absence of test compound as measured by liquid scintillation counting. The CPM values were corrected for the background counts produced by ATP in the absence of the enzymatic reaction. The IC50 values reported in TABLE 2 are averages of the number of tests conducted.

LOX = assay: Inhibition of cancer cell growth as measured by cell number, LOX; assay type: cell-based, human; settings: Homo sapiens, LOX, 48 h, read-out: IC50 LOX;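 also: LOX cells served as a line with low or absent EGFR and HER2/neu expression, in contrast to receptor-overexpressing lines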
Excerpt: as §1

[5] = system: human epidermoid tumors (A431); assay: In vivo inhibition of the growth of human epidermoid tumors (A431); settings: for S/T = No. Survivors/No. Treated: Day +28 post tumor staging
Procedure: Representative compounds of this invention (listed below) were evaluated in an in vivo standard pharmacological test procedure which measured its ability to inhibit the growth of human epidermoid tumors. […] BALB/c nu/nu female mice (Charles River, Wilmington, MA) were used in this in vivo standard pharmacological test procedure. A unit of 5 X 10^6 cells were injected SC into mice. When tumors attained a mass of between 100 and 150 mg, the mice were randomized into treatment groups (day zero). […] Control animals received no drug. Tumor mass was determined every 7 days [(length X width^2)/2] for 28 days post staging. Relative tumor growth (Mean tumor mass on days 7, 14, 21, and 28 divided by the mean tumor mass on day zero) is determined for each treatment group.

[6] = Table 10, 80 mg/kg/dose IP on days 1,5,9
[7] = Table 10, 80 mg/kg/dose PO on days 1 through 10
[8] = Table 11, 80 mg/kg/dose IP on days 1,5 and 9
[9] = Table 11, 80 mg/kg/dose PO on days 1 through 10

Epithelial Cell Kinase (ECK), sequence (P29317 24-976, species assumed): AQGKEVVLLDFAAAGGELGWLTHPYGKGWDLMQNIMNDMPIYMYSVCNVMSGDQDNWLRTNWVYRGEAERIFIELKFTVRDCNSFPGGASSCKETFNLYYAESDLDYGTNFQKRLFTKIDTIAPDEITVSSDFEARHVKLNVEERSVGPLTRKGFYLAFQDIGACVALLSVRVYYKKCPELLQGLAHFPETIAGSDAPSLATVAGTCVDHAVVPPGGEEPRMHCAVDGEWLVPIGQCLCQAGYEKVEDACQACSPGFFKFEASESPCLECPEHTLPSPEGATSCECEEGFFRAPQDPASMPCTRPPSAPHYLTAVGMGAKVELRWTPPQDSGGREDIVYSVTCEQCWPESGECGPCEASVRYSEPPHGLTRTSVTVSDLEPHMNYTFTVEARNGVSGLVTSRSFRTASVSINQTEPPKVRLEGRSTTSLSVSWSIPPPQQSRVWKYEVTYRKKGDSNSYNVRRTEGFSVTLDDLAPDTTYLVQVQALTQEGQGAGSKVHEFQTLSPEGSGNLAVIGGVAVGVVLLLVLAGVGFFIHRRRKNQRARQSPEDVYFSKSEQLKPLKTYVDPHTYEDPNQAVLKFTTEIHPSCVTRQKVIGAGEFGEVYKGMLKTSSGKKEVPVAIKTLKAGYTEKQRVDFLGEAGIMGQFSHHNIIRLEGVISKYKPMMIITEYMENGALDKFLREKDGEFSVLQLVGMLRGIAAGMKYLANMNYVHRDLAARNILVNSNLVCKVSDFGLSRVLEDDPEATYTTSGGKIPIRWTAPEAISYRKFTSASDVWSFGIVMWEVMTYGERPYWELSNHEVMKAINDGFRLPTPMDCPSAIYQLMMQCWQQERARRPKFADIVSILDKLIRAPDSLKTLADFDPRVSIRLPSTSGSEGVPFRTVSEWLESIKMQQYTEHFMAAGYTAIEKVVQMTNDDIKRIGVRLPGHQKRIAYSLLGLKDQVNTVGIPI
T2 sequence (P00533 669-1210): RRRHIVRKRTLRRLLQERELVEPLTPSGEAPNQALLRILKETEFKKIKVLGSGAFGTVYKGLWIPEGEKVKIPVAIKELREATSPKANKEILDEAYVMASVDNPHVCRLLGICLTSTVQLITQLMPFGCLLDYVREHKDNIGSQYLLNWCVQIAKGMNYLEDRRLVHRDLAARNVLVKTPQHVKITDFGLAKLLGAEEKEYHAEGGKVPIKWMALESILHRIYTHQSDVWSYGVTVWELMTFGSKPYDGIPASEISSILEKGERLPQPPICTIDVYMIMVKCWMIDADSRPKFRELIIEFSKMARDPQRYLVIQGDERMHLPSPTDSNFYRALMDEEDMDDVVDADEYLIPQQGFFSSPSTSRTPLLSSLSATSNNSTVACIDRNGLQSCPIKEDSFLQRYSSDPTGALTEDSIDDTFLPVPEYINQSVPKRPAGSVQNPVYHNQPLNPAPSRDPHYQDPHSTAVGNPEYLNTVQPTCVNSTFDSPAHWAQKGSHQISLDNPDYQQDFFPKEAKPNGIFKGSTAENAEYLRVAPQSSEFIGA
T1 sequence (P35968 834-1162 limits assumed): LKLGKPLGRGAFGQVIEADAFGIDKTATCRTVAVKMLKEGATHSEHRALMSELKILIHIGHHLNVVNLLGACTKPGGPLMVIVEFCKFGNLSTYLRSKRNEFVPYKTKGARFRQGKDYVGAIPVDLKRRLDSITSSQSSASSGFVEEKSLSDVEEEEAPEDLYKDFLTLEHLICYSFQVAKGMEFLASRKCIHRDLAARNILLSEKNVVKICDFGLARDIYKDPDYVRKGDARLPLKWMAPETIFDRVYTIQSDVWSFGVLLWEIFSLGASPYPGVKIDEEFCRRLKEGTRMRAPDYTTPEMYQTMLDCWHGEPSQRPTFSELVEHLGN

Compound: COc1cc2c(Nc3ccc(Cl)cc3F)c(C#N)cnc2cc1OCCCCl [Example 76, 4-(4-Chloro-2-fluoro-phenylamino)-7-(3-chloro-propoxy)-6-methoxy-quinoline-3-carbonitrile]
IC50 [1]: 1.67 µM
IC50 [2]: < 1 µM
IC50 [3]: 0.466 µM

Compound: COc1cc2c(Nc3ccc(C)c(O)c3)c(C#N)cnc2cc1OCCN(C)C [Example 82, 7-(2-Dimethylamino-ethoxy)-4-(3-hydroxy-4-methylphenylamino)-6-methoxy-quinoline-3-carbonitrile]
IC50 [1]: 7.64 µM
IC50 [2]: 5.5 µM
IC50 [3]: 51 µM

Compound: COc1cc2c(Nc3cc(O)c(Cl)cc3F)c(C#N)cnc2cc1OCCCN(C)C [Example 84, 4-(4-Chloro-2-fluoro-5-hydroxy-phenylamino)-7-(3-dimethylaminopropoxy)-6-methoxy-quinoline-3-carbonitrile]
IC50 [1]: 0.674 µM
IC50 [2]: < 1 µM
IC50 [3]: 0.449 µM

IC50 [1]: 0.616 µM
IC50 [3]: 0.0411 µM
Compound: COc1cc2c(Nc3cc(O)c(Cl)cc3F)c(C#N)cnc2cc1OCCCN1CCOCC1 [Example 85, 4-(4-Chloro-2-fluoro-5-hydroxy-phenylamino)-6-methoxy-7-(3-morpholin-4-yl-propoxy)-quinoline-3-carbonitrile]

Compound: CCN(CC)CC=CC(=O)Nc1ccc2ncc(C#N)c(Nc3cccc(Br)c3)c2c1 [Example 100, 4-Diethylamino-but-2-enoic acid [4-(3-bromophenylamino)-3-cyano-quinolin-6-yl]-amide]
IC50 (SKBR3): 0.1 µg/mL (≈ 0.209 µM)
IC50 [2]: 20 µM
IC50 (A431): 0.1 µg/mL (≈ 0.209 µM)
IC50 (SW620): 0.8 µg/mL (≈ 1.67 µM)
IC50 [3]: 41.8 µM

Compound: C=CC(=O)Nc1ccc2ncc(C#N)c(Nc3cccc(I)c3)c2c1 [Example 129]
IC50 [4]: 0.04 µM
IC50 [2]: 60 µM
IC50 [3]: 22.7 µM

Compound: N#Cc1cnc2ccc(NC(=O)C#CCN3CCCCC3)cc2c1Nc1cccc(Br)c1 [Example 169, N-{4-[(3-Bromophenyl)amino]-3-cyano-6-quinolinyl}-4-piperidino-2-butynamide]
IC50 (SKBR3): 0.02 µg/mL (≈ 0.041 µM)
IC50 [4]: 0.005 µM
IC50 [2]: > 100 µM
IC50 (A431): 0.01 µg/mL (≈ 0.0205 µM)
IC50 (SW620): 0.1 µg/mL (≈ 0.205 µM)
IC50 [3]: 40.9 µM

Compound: CCOc1cc2ncc(C#N)c(Nc3cccc(Br)c3)c2cc1OC [Example 176, 4-[(3-Bromophenyl)amino]-7-ethoxy-6-methoxy-3-quinolinecarbonitrile]
IC50 [1]: 7.53 µM
IC50 [2]: > 100 µM
IC50 [3]: 0.01 µM

Compound: CCOc1cc2ncc(C#N)c(Nc3ccc(C)c(O)c3)c2cc1OC [Example 177, 7-Ethoxy-4-[(3-hydroxy-4-methylphenyl)amino]-6-methoxy-3-quinolinecarbonitrile]
IC50 [1]: 0.143 µM
IC50 [2]: 40 µM
IC50 [3]: 0.0057 µM

Compound: CCN(CC)CC#CC(=O)Nc1ccc2ncc(C#N)c(Nc3cccc(Br)c3)c2c1 [Example 187, N-[4-[(3-Bromophenyl)amino]-3-cyano-6-quinolinyl]-4-diethylamino-2-butynamide]
IC50 (SKBR3): 0.06 µg/mL (≈ 0.126 µM)
IC50 [4]: 0.0007 µM
IC50 [2]: > 100 µM
IC50 (LOX): 0.07 µg/mL (≈ 0.147 µM)
IC50 (A431): 0.06 µg/mL (≈ 0.126 µM)
IC50 (SW620): 0.05 µg/mL (≈ 0.105 µM)
IC50 [3]: > 42 µM

IC50 (SKBR3): 0.06 µg/mL (≈ 0.126 µM)
IC50 [3]: 42 µM
Compound: CC(C)N(C)CC#CC(=O)Nc1ccc2ncc(C#N)c(Nc3cccc(Br)c3)c2c1 [Example 191, N-[4-[(3-Bromophenyl)amino]-3-cyano-6-quinolinyl]-4-(N-isopropyl-N-methylamino)-2-butynamide]

Compound: CC(C)N(CC#CC(=O)Nc1ccc2ncc(C#N)c(Nc3cccc(Br)c3)c2c1)C(C)C [Example 192, N-[4-[(3-Bromophenyl)amino]-3-cyano-6-quinolinyl]-4-diisopropylamino-2-butynamide]
IC50 (SKBR3): 0.03 µg/mL (≈ 0.0595 µM)
IC50 [4]: 0.0006 µM
IC50 [2]: > 100 µM
IC50 (A431): 0.05 µg/mL (≈ 0.0991 µM)
IC50 (SW620): 0.1 µg/mL (≈ 0.198 µM)
IC50 [3]: 39.6 µM

Compound: CN(C)CC#CC(=O)Nc1ccc2ncc(C#N)c(Nc3ccc(F)c(Cl)c3)c2c1 [Example 193, N-[4-[(3-Chloro-4-fluorophenyl)amino]-3-cyano-6-quinolinyl]-4-dimethylamino-2-butynamide]
IC50 (SKBR3): 0.003 µg/mL (≈ 0.00711 µM)
IC50 [4]: 0.0019 µM
IC50 [2]: 50 µM
IC50 (A431): 0.01 µg/mL (≈ 0.0237 µM)
IC50 (SW620): 0.1 µg/mL (≈ 0.237 µM)
IC50 [3]: 47.4 µM

Compound: COc1cc2ncc(C#N)c(Nc3ccc(F)c(Cl)c3)c2cc1NC(=O)C=CCN(C)C [Example 203, 4-Dimethylamino-but-2-enoic acid [4-(3-chloro-4-fluorophenylamino)-3-cyano-7-methoxy-quinolin-6-yl]-amide]
IC50 [2]: < 1 µM and 0.8 µM
%T/C Day 7 [5, 6]: 20%
%T/C Day 14 [5, 6]: 12%
%T/C Day 21 [5, 6]: 14%
%T/C Day 28 [5, 6]: 16%
S/T = No. Survivors/No. Treated [5, 6]: 5/5
%T/C Day 7 [5, 7]: 15%
%T/C Day 14 [5, 7]: 8%
%T/C Day 21 [5, 7]: 12%
%T/C Day 28 [5, 7]: 17%
S/T = No. Survivors/No. Treated [5, 7]: 4/5
IC50 [3]: 2.2 µM

Compound: CCN(CC)CC=CC(=O)Nc1cc2c(Nc3ccc(F)c(Cl)c3)c(C#N)cnc2cc1OC [Example 204, 4-Diethylamino-but-2-enoic acid [4-(3-chloro-4-fluorophenylamino)-3-cyano-7-methoxy-quinolin-6-yl]-amide]
IC50 [2]: 35 µM
%T/C Day 7 [5, 6]: 45%
%T/C Day 14 [5, 6]: 42%
%T/C Day 21 [5, 6]: 55%
%T/C Day 28 [5, 6]: 49%
S/T = No. Survivors/No. Treated [5, 6]: 5/5
%T/C Day 7 [5, 7]: 25%
%T/C Day 14 [5, 7]: 18%
%T/C Day 21 [5, 7]: 43%
%T/C Day 28 [5, 7]: 51%
S/T = No. Survivors/No. Treated [5, 7]: 4/5
IC50 [3]: 20.7 µM

Compound: COc1cc2ncc(C#N)c(Nc3ccc(F)c(Cl)c3)c2cc1NC(=O)C=CCN1CCOCC1 [Example 205, 4-Morpholin-4-yl-but-2-enoic acid [4-(3-chloro-4-fluorophenylamino)-3-cyano-7-methoxy-quinolin-6-yl]-amide]
IC50 [2]: > 100 µM
%T/C Day 7 [5, 6]: 30%
%T/C Day 14 [5, 6]: 25%
%T/C Day 21 [5, 6]: 38%
%T/C Day 28 [5, 6]: 61%
S/T = No. Survivors/No. Treated [5, 6]: 5/5
%T/C Day 7 [5, 7]: 23%
%T/C Day 14 [5, 7]: 19%
%T/C Day 21 [5, 7]: 23%
%T/C Day 28 [5, 7]: 29%
S/T = No. Survivors/No. Treated [5, 7]: 5/5
IC50 [3]: 40.4 µM

Compound: CCOc1cc2ncc(C#N)c(Nc3cccc(Br)c3)c2cc1NC(=O)C=CCN(CC)CC [Example 217, 4-Diethylamino-but-2-enoic acid [4-(3-bromo-phenylamino)-3-cyano-7-ethoxy-quinolin-6-yl]-amide]
%T/C Day 7 [5, 8]: 25%
%T/C Day 14 [5, 8]: 36%
%T/C Day 21 [5, 8]: 51%
%T/C Day 28 [5, 8]: 56%
S/T = No. Survivors/No. Treated [5, 8]: 5/5
%T/C Day 7 [5, 9]: 30%
%T/C Day 14 [5, 9]: 33%
%T/C Day 21 [5, 9]: 43%
%T/C Day 28 [5, 9]: 42%
S/T = No. Survivors/No. Treated [5, 9]: 5/5
IC50 [3]: 0.115 µM

Compound: COc1cc2c(Nc3cccc(Br)c3)c(C#N)cnc2c(OC)c1OC [Example 241, 4-(3-Bromo-phenylamino)-6,7,8-trimethoxy-quinoline-3-carbonitrile]
IC50 [1]: > 72.4 µM
IC50 [2]: > 100 µM
IC50 [3]: 7.24 µM

Compound: COc1cc2c(Nc3cc(O)c(Cl)cc3F)c(C#N)cnc2c(OC)c1OC [Example 244, 4-(4-Chloro-2-fluoro-5-hydroxy-phenylamino)-6,7,8-trimethoxy-quinoline-3-carbonitrile]
IC50 [1]: > 74.3 µM
IC50 [2]: > 100 µM
IC50 [3]: 24.8 µM

Compound: COc1cc2ncc(C#N)c(Nc3c(C)cccc3O)c2cc1OC [Example 246, 4-(2-Hydroxy-6-methyl-phenylamino)-6,7-dimethoxy-quinoline-3-carbonitrile]
IC50 [1]: > 29.8 µM
IC50 [2]: 35 µM
IC50 [3]: 0.006 µM
